Reference: US5364869A, “Heterocycle-substituted benzyaminopyridine angiotensin II receptor antagonists” (Abbott Laboratories, priority 1993, dated 1994)

Columns and labels:
[1] = system: hypertension and congestive heart failure; conditions: background; cited from earlier work
angiotensin II receptor = molecular target: T1, angiotensin II receptor (Oryctolagus cuniculus, UniProt P34976); experiment: Antagonism of contraction of rabbit aorta (angiotensin II functional assay, isolated rabbit aorta); parameters: species or system rabbit (female New Zealand White); conditions: Schild analysis; for Kb: pA2 = negative logarithm of [A]2
T1 construct: Main abdominal aortas were removed and placed in Krebs-Henseleit buffer; from tissue; host or cells: abdominal aorta rings of female New Zealand White rabbits
T1 sequence (P34976 1-359): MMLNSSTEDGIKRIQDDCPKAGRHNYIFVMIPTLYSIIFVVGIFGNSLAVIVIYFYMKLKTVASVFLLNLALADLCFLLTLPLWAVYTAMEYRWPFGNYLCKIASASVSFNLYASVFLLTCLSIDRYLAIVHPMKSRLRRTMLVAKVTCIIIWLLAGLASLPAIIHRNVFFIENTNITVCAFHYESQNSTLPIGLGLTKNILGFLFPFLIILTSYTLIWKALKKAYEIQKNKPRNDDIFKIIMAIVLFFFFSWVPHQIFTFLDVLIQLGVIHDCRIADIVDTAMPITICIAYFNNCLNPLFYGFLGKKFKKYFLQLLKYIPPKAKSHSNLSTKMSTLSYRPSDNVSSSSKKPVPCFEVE
Description: ANGIOTENSIN II FUNCTIONAL ASSAY
Antagonism of Contraction of Rabbit Aorta
The protocol reported by A. T. Chiu and P. Timmermans (P. C. Wong, et al. Hypertension, 13, 489-497 (1989)) was followed with a few modifications. Female New Zealand White rabbits weighing 2-5 kg were sedated with carbon dioxide and then sacrificed. Main abdominal aortas were removed and placed in Krebs-Henseleit buffer at room temperature.
The tissues were cleaned of extraneous connective tissue, cut into 3 mm rings, and suspended within a 10 mL tissue bath. All dilutions of peptide preparations were made with 0.3% aqueous BSA. The tissues were primed with 55 mM potassium chloride. Tissues were pre-loaded with 1 g of tension. Tension was recorded on a model 7 Grass polygraph using FT03 transducers. At the end of the equilibrium period, a control cumulative concentration-contractile response curve for angiotensin II (A II: 1×10^-10 -10^-8 M) was obtained. The tissue was washed several times until the baseline was reached. Forty five minutes later, test compound (antagonist) was added and the tissue was incubated for 30 minutes. The concentration-response curve for A II was then repeated in the presence of the test compound. One dose of antagonist was tested per tissue only. For single dose shift experiments a dose of 1 mM of test compound was used, for a full pA2 experiment multiple doses were used depending upon the potency of the antagonist.
All responses to the control agonist were calculated as a percentage of the maximum response. These points in duplicate were plotted and analyzed according to standard Schild analysis (H. O. Schild, British J Pharmacology and Chemotherapy, 2, 189-206 (1947). The pA2 values calculated for the compounds of the invention are shown in Table 1. The pA2 value is the negative logarithm of the [A]2 value. [A]2 is the concentration of antagonist which necessitates doubling the agonist concentration in order to achieve the agonist effect which was measured in the absence of antagonist.
The pA2 value, therefore is a measure of the effectiveness of the compound as an antagonist.

[2] = background; cited from earlier work
[3] = after intravenous administration; due to angiotensin receptor agonist activity; cited from earlier work
angiotensin II = conditions: background; cited from earlier work

Structure (SMILES): C[C@H](CS)C(=O)N1CCC[C@H]1C(=O)O [captopril]
- clinical efficacy in treating hypertension and congestive heart failure (in words) [1]: have clinical efficacy in treating hypertension and congestive heart failure

Structure (SMILES): CCCN(Cc1ccc2c(Br)c(-c3ccccc3-c3nn[nH]n3)sc2c1)c1ncccc1C(=O)O [Example 3]
- pA2 (angiotensin II receptor; pA2 = negative logarithm of [A]2, 30 min): 7.53

Structure (SMILES): CNCC(=O)N[C@@H](CCCN=C(N)N)C(=O)N[C@H](C(=O)N[C@@H](Cc1ccc(O)cc1)C(=O)N[C@H](C(=O)N[C@@H](Cc1cnc[nH]1)C(=O)N1CCC[C@H]1C(=O)N[C@@H](C)C(=O)O)C(C)C)C(C)C [saralasin, [Sar^1, Ala^8] angiotensin II]
- oral bioavailability (in words) [2]: very poor oral bioavailability
- initial blood pressure change (in words) [3]: initial increase in blood pressure after intravenous administration
- antagonist of the actions of angiotensin II (in words) (angiotensin II): potent antagonist of the actions of angiotensin II

Structure (SMILES): CCCN(Cc1ccc(-n2cc(Br)cc2-c2nn[nH]n2)cc1)c1ncccc1C(=O)O [Example 4H, 2-{N-Propyl-N-[(1-[3-bromo-5-(1H-tetrazol-5-yl)pyrrole-1-yl]phenyl-4-yl)methyl]amino}pyridine-3-carboxylic acid]
- Kb (angiotensin II receptor): 0.132 nM

Structure (SMILES): CCOC(=O)[C@H](CCc1ccccc1)N[C@@H](C)C(=O)N1CCC[C@H]1C(=O)O [enalapril]
- clinical efficacy in treating hypertension and congestive heart failure (in words) [1]: have clinical efficacy in treating hypertension and congestive heart failure

Structure (SMILES): CCCN(Cc1ccc(OC(C(=O)O)c2ccccc2)cc1)c1nc(C)ncc1C(=O)O (stereo not drawn) [Example 1, 4-[N-4-(1-Carboxy-1-phenylmethoxy)benzyl-N-propyl]amino-2-methylpyrimidine-5-carboxylic acid]
- Kb (angiotensin II receptor): 589 nM

Structure (SMILES): COc1ccc(C[C@H](NC(=O)CC(C)(C)N)C(=O)N[C@@H](Cc2cnc[nH]2)C(=O)N[C@@H](CC2CCCCC2)[C@@H](O)[C@@H](O)CC(C)C)cc1 [enalkiren]
- clinical efficacy in treating hypertension and congestive heart failure (in words) [1]: have clinical efficacy in treating hypertension and congestive heart failure
